Data on two substances can be found in patent publication US20020037844A1, “SYNTHETIC PEPTIDE FOR TREATMENT OF AUTOIMMUNE ARTHRITIS” (priority 1993, published 2002).

For experiment [1], the target named is T1, I-A^q on the surface of antigen presenting cells (Mus musculus, UniProt P04227+P06342).
T1 construct: containing 4×10^5 syngenic spleen cells and 10^5 T-hybridoma cells; from tissue; host or cells: spleen cells syngeneic to DBA/1 mice (H-2q), used as antigen presenting cells
As to the kind of experiment: Competitive antigen presentation assay: pulsed APC presented to CII 245-270 specific T-cell hybridomas, IL-2 titer. In kind it is cell-based, DBA/1 mice. The note with it: conclusion from Table II. Here is the method: Lymph node cells were obtained from DBA/1 mice immunized with α1(II)-CB11 emulsified with complete Freund's adjuvant and cultured in vitro with α1(II)-CB11 for five days, and in the presence of IL-2 for three days before fusion. Hybridoma cells reactive to CB11 [CII 245-270] and CII were cloned by limiting dilution to 0.3 cells/well. Antigen presentation experiments were performed in 96 well […] plates in a total volume of 0.3 ml containing 4×10^5 syngenic spleen cells and 10^5 T-hybridoma cells. For competitive inhibition assays, spleen cells were pulsed with various ratios of inhibitor to indicator peptide and washed several times prior to addition to the antigen presentation culture. Cell cultures were maintained at 37° C. in 5% humidified CO2 for 20 to 24 hours, after which seven 80 μl two-fold serial dilutions were made for determination of IL-2 titers. Four thousand HT-2 cells were added to each supernatant dilution, and after 16 to 20 hours HT-2 cell viability was evaluated by visual inspection. IL-2 titers were determined by the reciprocal of the highest two-fold serial dilution maintaining 90% viability of the HT-2 cells. Results are presented as units of IL-2 per ml of undiluted supernatant as described by Kapper et al. Kappler, J., J. White, D. Wegman, E. Mustain, and P. Marrack, 1982, Antigen Presentation by Ia^+B Cell Hybridomas to H-2 Restricted T Cell Hybridomas. Proc. Natl. Acad. Sci. USA 79:3604. The disclosure of this article is incorporated by reference.
The inability of some analog peptides to stimulate T cells likely occurs either because of disruption of peptide binding to the I-A^q molecule or the inability of the T cell receptor to recognize the peptide. In order to determine whether the analog peptides could bind to the class II molecule, competitive antigen presentation assays were performed. Antigen presenting cells (APC) were pulsed with various molar ratios of CII 245-270 and an analog peptide, and tested for their ability to stimulate CII 245-270 specific T cell hybridomas.

For experiment [2], the system named is CII-primed, bulk T cells. As to the kind of experiment: Inhibition of antigen presentation to CII-primed bulk T cells (co-culture). In kind it is cell-based, DBA/1 mice. The settings on record: analog co-cultured with CII 245-270 or native CII at various ratios; FIG. 2. How it is done: T cell stimulation assays were performed in 96 well plates and the degree of stimulation was quantitated by measurements of γ-IFN production. Myers, L. K., K. Terato, J. M. Seyer, J. M. Stuart, and A. H. Kang, 1992, Characterization of a Tolerogenic T Cell Epitope of Type II Collagen and its Relevance to Collagen-Induced Arthritis. J. Immunol. 149:1439. The disclosure of this article is incorporated by reference. Spleens and lymph nodes from mice immunized with CII 14 to 21 days prior were individually minced into single cell suspensions in Hank's Balanced Salt Solution (BSS) and washed 3 times. […] Supernatants were collected from 72 to 120 hours later and either […] analyzed for γ-IFN production immediately or stored at −70° C. prior to analysis. Quantitative measurement of murine gamma interferon was done using a solid-phase enzyme-linked immunosorbent assay (Amgen Biologicals, Thousand Oaks, Calif.). […] The absorbance was measured at 405 nm with a spectrophotometer, and a standard curve was obtained by plotting the absorbance versus the corresponding concentration of the standards. Units of γ-interferon were calculated based on NIH standard number Gg02-901-533. […]

Experiment [3] has as its system CII-primed T cells. As to the kind of experiment: T cell stimulation assay, γ-IFN production by CII-primed spleen and lymph node cells. The settings on record: CII-primed T cells cultured with 100 μm of antigen; FIG. 1. In kind it is cell-based, mice. How it is done:
Nowarck H., E. Hahn, R. Timple, 1976, “Requirements for T Cells in the Antibody Response of Mice to Calf Skin Collagen,” J. Immunol. 30:29. Each peptide was cultured with pooled spleen and lymph node cells from CII-immunized mice, and culture supernatant fluids were tested for the presence of γ-interferon as an indicator of T cell stimulation. T cell hybridomas were established by polyethylene glycol-induced fusion of lymph node cells with the T cell receptor α^−/β^−thymoma line, BW5147. White, M., M. Blackman, J. Bill, J. Kappler, P. Marrack, D. P. Gold, and W. Born, 1989, Two Better Cell Lines for Making Hybridomas Expressing Specific T Cell Receptors. J. Immunol. 143:1822. […]
T cell stimulation assays were performed in 96 well plates and the degree of stimulation was quantitated by measurements of γ-IFN production. […] Supernatants were collected from 72 to 120 hours later and either […] analyzed for γ-IFN production immediately or stored at −70° C. prior to analysis. Quantitative measurement of murine gamma interferon was done using a solid-phase enzyme-linked immunosorbent assay (Amgen Biologicals, Thousand Oaks, Calif.). […] The absorbance was measured at 405 nm with a spectrophotometer, and a standard curve was obtained by plotting the absorbance versus the corresponding concentration of the standards. Units of γ-interferon were calculated based on NIH standard number Gg02-901-533. […]

In experiment [4] the test system is antibodies to CII. In words: Serum antibodies to CII by ELISA in neonatally treated mice. It is filed as in vivo. The note with it: 100 μg antigen in IFA intraperitoneally within 24 hours of birth; serum four weeks after immunization; mean titer. Here is the method:
(§1) Mice were bled at four weeks after immunization and the serum was tested for antibodies reactive with type II collagen by enzyme-linked immunoassay (ELISA) described in Stuart, J. M., A. S. Townes, and A. H. Kang. 1982. Nature and Specificity of the Immune Response to Collagen in Type II Collagen-Induced Arthritis in Mice, J. Clin. Invest. 69:673. The disclosure of this article is incorporated by reference An anti-CII serum standard was used in each assay. A standard curve was derived by computer analysis using a 4 parameter logistic curve. Results are reported as units of activity, derived by comparison of test sera with the curve derived from the anti-CII standard which was arbitrarily defined as having 50 units of activity. Sera from mice were tested individually, and means were calculated for each experimental group.
The foregoing data support the hypothesis that analog peptide CII 245-270[s260, 261, 263] competes for binding to I-A^q. […] Synthetic peptides were solubilized directly in phosphate buffered saline (PBS) at a concentration of 1 mg/ml. Neonatal mice were tolerized using a protocol described by Gammon et al.^21 in which antigen emulsified with incomplete Freund's adjuvant was injected intraperitoneally. Gammon, Dunn, Shastri, Oki, Wilbur, Sercarz, 1986, Neonatal T Cell Tolerance to Minimal Immunogenic Peptides is Caused by Clonal Inactivation, Nature (Lond) 319:413. […]

Experiment [5] concerns collagen induced arthritis in neonatally tolerized mice. The note with it: Myers et al. 1989, J. Exp. Med. 170:1999; cited from earlier work.
Experiment [6] relates to collagen induced arthritis (CIA) in DBA/1 mice. As to the kind of experiment: Collagen induced arthritis, simultaneous immunization with CII and peptide. It is filed as in vivo. The settings on record: co-injected with native CII, molar ratio CII:peptide 1:480.
Experiment [7] has as its system antibodies reactive with type II collagen. In words: Serum antibodies to CII by ELISA in co-immunized mice. In kind it is in vivo, DBA/1 mice. The settings on record: molar ratio CII:peptide 1:480; serum four weeks after immunization; mean. How it is done: as §1
In order to assess the effects of co-immunizing mice with both CII 245-270[s260, 261, 263] and CII, the mean antibody titers to native CII were measured for each immunization group in Table III, four weeks after immunization (Table IV).

For experiment [8], the system named is collagen induced arthritis in neonatally tolerized mice. As to the kind of experiment: Neonatal tolerance: peptide given at birth, CII challenge at eight weeks, arthritis observed. It is filed as in vivo. The settings on record: administered to neonatal mice prior to immunization with CII. From the text:
To measure the incidence of arthritis in immunized mice, individuals examined and scored each of the forepaws and hind paws on a scale of 0-4 as described in Wooley, P. H., H. W. Luthra, J. M. Stuart and C. S. David. 1981. “Type 11 Collagen-induced Arthritis in Mice”. I. Major Histocompatibility Complex (I region) Linkage and Antibody Correlates. J. Exp. Med. 154:688. This article is incorporated herein by reference. There were two separate examiners, one of whom was unaware of the identity of the treatment groups. Each mouse was scored three times a week beginning three weeks post immunization and continuing through 8 weeks post immunization. The incidence of arthritis (number of animals with one or more arthritic limbs) was reported at 6 weeks post immunization, the time point at which the control group reached its peak of disease. The incidence of arthritis in various groups of mice was compared using Fisher's Exact Test. Student's T test was used to compare means of antibody responses to CII.
The foregoing data support the hypothesis that analog peptide CII 245-270[s260, 261, 263] competes for binding to I-A^q. […] Synthetic peptides were solubilized directly in phosphate buffered saline (PBS) at a concentration of 1 mg/ml. […]

With “CII 245-270 [s266, 267, 269]: analog of CII 245-270 with D at 266, T at 267, A at 269 (type I collagen based substitutions) (PTGPLGPKGQTGELGIAGFKGDTGAK)”, the “Binding to I-A^q / competition for presentation of the wild type peptide to T-cell hybridomas” value in experiment [1] was “did not compete”. Also, the “T cell responses to CII 245-270 and CII” value in experiment [2] was “no significant effect”. In experiment [3], the “T cell stimulation (γ-interferon) compared to the wild type peptide CII 245-270” value is on record as “did not respond”.

As for “Pro - Thr - Gly - Pro - Leu - Gly - Pro - Lys - Gly - Gin - Thr - Gly - Glx - Leu - Gly - Ile - Ala - Gly - Phe - Lys - Gly - Glx - Gln - Gly - Pro - Lys [CII 245-270, reference compound]”, the “Antibodies to CII” value was 18.5 ± 8 in experiment [4] and 54 ± 25 units of activity in experiment [7]. Also, the “Suppression of arthritis as neonatal tolerogen” value in experiment [5] was “suppresses arthritis”. The “Development / incidence of arthritis, in words” value in experiment [6] was “did not alter the incidence of disease”. For the same substance, in experiment [8], the “Effectiveness as neonatal tolerogen, in words” value is recorded as “effective tolerogen”.
